According to patent US20260284066A1, “TYK2 INHIBITORS AND COMPOSITIONS AND METHODS THEREOF” (LYNK PHARMACEUTICALS CO. LTD., priority 2023, published 2026):
Values after ≈ are worked out from the molar mass of the structure shown. Where two headings read alike, the source gives them in different places.

Assays:
[1] = target: T1, TYK2-JH2 domain (Homo sapiens, UniProt P29597); test: Binding activity test for TYK2 JH2 domain (Tb-antibody/tracer FRET); details: for JAK1/TYK2 selectivity: ratio of JAK1 JH2 to TYK2 JH2 binding IC50
T1 construct: JAK1-JH2 domain or TYK2-JH2 domain enzyme

[2] = target: T2, JAK1-JH2 domain (Homo sapiens, UniProt P23458); test: Binding activity test for JAK1 JH2 domain (Tb-antibody/tracer FRET)
T2 construct: JAK1-JH2 domain or TYK2-JH2 domain enzyme
Description: Binding Activity test for JH2 domain of JAK and TYK2
75 nL DMSO for high control and low control.
For low control, add 5 μL/well assay buffer. […] After enzyme system prepared, add 5 μL of Tb-antibody solution into each wells of assay plate. […] After Tb-antibody added, also add 5 μL of tracer into the assay plate. […] Incubate for 60 mins at 25° C. firstly and then continue to incubate the plate at 4° C. overnight. Read by envision in FRET mode. The Luminescence value was recorded by a multi-label reader Envision (PerkinElmer). Inhibition Rate was calculated relative to vehicle (DMSO) treated control wells using following formula:
wherein • RLU_compound=the relative light unit of cells treated with test compounds • RLU_low control=the relative light unit of medium with DMSO only • RLU_high control=the relative light unit of cells treated with DMSO only

[3] = Microsomal metabolic stability assay; format: in vitro ADME, human; details: human, liver microsomes, pH 7.4, human liver microsomes 0.5 mg/mL; for microsomal CLint at 1 µM: read-out: Human LM Clint; for half-life at 1 µM: read-out: Human LM T½
Description: Microsomal Metabolic Stability Assay
Microsomes were pre-incubated with test compound or control compounds for 5 min at 37° C. in 100 mM potassium phosphate buffer, pH 7.4, 1.0 mM EDTA. The reaction was initiated by addition of 15 μL of the NADPH regenerating system to 30 μL of each incubation mixture per time point. The final incubation condition was composed of 0.5 mg/mL microsomal protein, 1 μM test article/positive control, 2 mM NADPH. The 0-minute samples were prepared by addition of a 30 μL aliquot of each incubation mixture to 135 μL quench reagent to precipitate proteins. And then a 15 μL aliquot of the NADPH regenerating system was added. At 5, 15, 30 and 45 minutes, the reaction will be stopped by the addition of cold acetonitrile solution containing internal standard. The samples taken at all time points were centrifuged at 5000×g for 15 minutes. 50 μL of supernatant are taken into 96-well assay plates pre-added with 50 μL ultrapure water, and then analyzed by LC/MS/MS.
Concentrations of test articles, control compounds in the samples were determined by using LC/MS/MS method. Plotting of the chromatograms and peak area integrations are carried out by Analyst (AB Sciex).
In the determination of the in vitro elimination constant (ke) of the control compounds, the analyte/internal standard peak area ratios will be converted to percentage remaining (% Remaining) with the following equation:
The CLint of microsomes was calculated using the formula: CLint (mic)=0.693/T1/2/mg microsome protein per mL. The slope was measured by the natural logarithm of the percentage of the residual compound and time, T1/2 was calculated according to the following formula.

[4] = Kinetic solubility; format: physicochemical; details: aqueous buffer, 100 mM pH 7.4 phosphate buffer, 1% DMSO, room temperature, read-out: Kinetics Solubility_PBS7.4
Description: Aliquots of 8 μL of reference and test compound stock solutions (10 mM/5 mM) are added into 792 μL of 100 mM pH 7.4 phosphate buffer. The final DMSO concentration is 1%. Sample tubes are shaken for 2 hours at 1000 rpm at room temperature. Samples are centrifuged at 12000 rpm for 10 min to precipitate un-dissolved particles. And transfer the supernatants to a new tube or plate. Add 5 μL of samples (no diluted, 10 times diluted and 100 times diluted) and standard curve samples to 95 μL of ACN containing IS for LC-MS/MS analysis.

[5] = read-out: TYK2 JH2 Binding IC50
[6] = read-out: JAK1 JH2 Binding IC50

T2 sequence (P23458 583-855 limits assumed): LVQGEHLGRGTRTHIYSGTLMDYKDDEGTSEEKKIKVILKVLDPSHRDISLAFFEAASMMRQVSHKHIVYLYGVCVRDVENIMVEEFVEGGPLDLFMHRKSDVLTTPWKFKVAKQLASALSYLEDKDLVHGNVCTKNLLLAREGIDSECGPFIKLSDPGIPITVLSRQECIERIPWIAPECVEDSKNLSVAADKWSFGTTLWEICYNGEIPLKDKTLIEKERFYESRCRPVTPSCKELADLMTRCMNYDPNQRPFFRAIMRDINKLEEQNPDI
T1 sequence (P29597 589-875 limits assumed): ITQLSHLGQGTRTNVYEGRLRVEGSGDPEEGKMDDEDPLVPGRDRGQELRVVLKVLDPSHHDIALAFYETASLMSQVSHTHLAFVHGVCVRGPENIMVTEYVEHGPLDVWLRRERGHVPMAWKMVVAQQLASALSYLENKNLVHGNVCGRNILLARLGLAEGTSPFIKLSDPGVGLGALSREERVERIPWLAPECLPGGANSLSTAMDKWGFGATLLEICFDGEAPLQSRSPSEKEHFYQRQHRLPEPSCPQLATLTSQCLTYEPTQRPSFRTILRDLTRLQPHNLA

| Structure (SMILES) | IC50 ([1]; TYK2 JH2 Binding IC50(nM)) | JAK1/TYK2 selectivity [1] | IC50 ([2]; JAK1 JH2 Binding IC50(nM)) | IC50 [1, 5] | IC50 [2, 6] | microsomal CLint at 1 µM [3] | half-life at 1 µM [3] | solubility kinetic at 2 h [4] |
| --- | --- | --- | --- | --- | --- | --- | --- | --- |
| [2H]C([2H])([2H])NC(=O)c1cnc(NC(=O)C2CC2)cc1Nc1ncc2cnn(COCC[Si](C)(C)C)c2c1OC [Example 1, 6-(Cyclopropanecarboxamido)-4-((7-methoxy-1-((2-(trimethylsilyl)ethoxy)methyl)-1H-pyrazolo[4,3-c]pyridin-6-yl)amino)-N-(methyl-d3)nicotinamide] | 9.31 nM | >32.07 | > 298 nM | – | – | – | – | – |
| [2H]C([2H])([2H])NC(=O)c1cnc(Nc2ccc(N3CCOCC3)cn2)cc1Nc1ccn2ncc(C#N)c2c1OC [Example 6, 4-((3-Cyano-4-methoxypyrazolo[1,5-a]pyridin-5-yl)amino)-N-(methyl-d3)-6-((5-morpholinopyridin-2-yl)amino)nicotinamide] | – | 4.48 | – | 0.157 nM | 0.703 nM | 28.4 µL/min/mg | 48.8 min | – |
| [2H]C([2H])([2H])NC(=O)c1cnc(Nc2ccc(N3CCOCC3)cn2)nc1Nc1ccn2ncc(C#N)c2c1OC [Example 7, 4-((3-Cyano-4-methoxypyrazolo[1,5-a]pyridin-5-yl)amino)-N-(methyl-d)-2-((5-morpholinopyridin-2-yl)amino)pyrimidine-5-carboxamide] | – | 26.60 | – | 0.404 nM | 10.7 nM | 28.1 µL/min/mg | 49.3 min | – |
| [2H]C([2H])([2H])NC(=O)c1cnc(NC(=O)[C@@H]2C[C@@H]2F)cc1Nc1ncc2cnn(CC(C)(F)F)c2c1OC [Example 8, 4-((1-(2,2-Difluoropropyl)-7-methoxy-1H-pyrazolo[4,3-c]pyridin-6-yl)amino)-6-((1S,2S)-2-fluorocyclopropane-1-carboxamido)-N-(methyl-d3)nicotinamide] | – | 561.99 | – | 0.288 nM | 162 nM | – | – | – |
| [2H]C([2H])([2H])NC(=O)c1cnc(NC(=O)[C@H]2C[C@H]2F)cc1Nc1ncc2cnn(CC(C)(F)F)c2c1OC [Example 11, 4-((1-(2,2-Difluoropropyl)-7-methoxy-1H-pyrazolo[4,3-c]pyridin-6-yl)amino)-6-((1R,2R)-2-fluorocyclopropane-1-carboxamido)-N-(methyl-d3)nicotinamide] | – | 227.16 | – | 0.325 nM | 73.8 nM | 2.86 µL/min/mg | 485 min | – |
| [2H]C([2H])([2H])NC(=O)c1cnc(Nc2cc(CN3CCOCC3)n(C)n2)cc1Nc1ccc2cnn(CC#N)c2c1OC [Example 12, 4-((1-(Cyanomethyl)-7-methoxy-1H-indazol-6-yl)amino)-N-(methyl-d3)-6-((1-methyl-5-(morpholinomethyl)-1H-pyrazol-3-yl)amino)nicotinamide] | – | 8.55 | – | 0.189 nM | 1.62 nM | – | – | 7.21 µM (≈ 3.85 µg/mL) |
| [2H]C([2H])([2H])NC(=O)c1cnc(NC(=O)[C@@H]2C[C@@H]2F)cc1Nc1ncn2ncc(C(C)C(F)(F)F)c2c1OC (stereo partly drawn) [Example 13, 6-((1S,2S)-2-fluorocyclopropane-1-carboxamido)-4-((4-methoxy-3-(1,1,1-trifluoropropan-2-yl)pyrazolo[1,5-c]pyrimidin-5-yl)amino)-N-(methyl-d3)nicotinamide] | – | >175.38 | – | 1.7 nM | > 298 nM | 25.4 µL/min/mg | 54.5 min | – |
| [2H]C([2H])([2H])NC(=O)c1cnc(NC(=O)C2CC2)cc1Nc1ncc2ccn(CC)c2c1OC [Example 18, 6-(Cyclopropanecarboxamido)-4-((1-ethyl-7-methoxy-1H-pyrrolo[3,2-c]pyridin-6-yl)amino)-N-(methyl-d3)nicotinamide] | – | 83.55 | – | 0.049 nM | 4.09 nM | – | – | 41.5 µM (≈ 17.1 µg/mL) |
| COC(=O)c1cnc(NC(=O)C2CC2)cc1Nc1ncn2ncc(C#N)c2c1OC [Example 19, Methyl 4-((3-cyano-4-methoxypyrazolo[1,5-c]pyrimidin-5-yl)amino)-6-(cyclopropanecarboxamido)nicotinate] | – | 13.51 | – | 1.63 nM | 22.1 nM | – | – | – |
| [2H]C([2H])([2H])NC(=O)c1cnc(Nc2ccc(F)cn2)cc1Nc1ncc2cnn(CC(C)(F)F)c2c1OC [Example 21, 4-((1-(2,2-Difluoropropyl)-7-methoxy-1H-pyrazolo[4,3-c]pyridin-6-yl)amino)-6-((5-fluoropyridin-2-yl)amino)-N-(methyl-d3)nicotinamide] | – | 353.07 | – | 0.396 nM | 140 nM | 16.3 µL/min/mg | 84.8 min | – |
| [2H]C([2H])([2H])NC(=O)c1cnc(NC(=O)C2CC2)cc1Nc1ncc2ncn(CC(F)(F)F)c2c1OC [Example 25, 6-(Cyclopropanecarboxamido)-4-((7-methoxy-1-(2,2,2-trifluoroethyl)-1H-imidazo[4,5-c]pyridin-6-yl)amino)-N-(methyl-d3)nicotinamide] | – | 268.51 | – | 0.174 nM | 46.7 nM | – | – | – |
| COC(=O)c1cnc(NC(=O)C2CC2)cc1Nc1ncc2cnn(CC(C)(F)F)c2c1OC [Example 26, Methyl 6-(cyclopropanecarboxamido)-4-((1-(2,2-difluoropropyl)-7-methoxy-1H-pyrazolo[4,3-c]pyridin-6-yl)amino)nicotinate] | – | 443.32 | – | 0.26 nM | 115 nM | – | – | – |
| [2H]C([2H])([2H])NC(=O)c1cnc(NC(=O)C2CC2)cc1Nc1ncn2ncc(C(O)C(F)(F)F)c2c1OC (centres unmarked) [Example 30, 6-(Cyclopropanecarboxamido)-4-((4-methoxy-3-(2,2,2-trifluoro-1-hydroxyethyl)pyrazolo[1,5-c]pyrimidin-5-yl)amino)-N-(methyl-d3)nicotinamide] | – | 822.4 | – | 0.134 nM | 110 nM | – | – | – |
| [2H]C([2H])([2H])NC(=O)c1cnc(NC(=O)C2CC2)cc1Nc1ccc2ncn(CC(C)(F)F)c2c1OC [Example 31, 6-(Cyclopropanecarboxamido)-4-((1-(2,2-difluoropropyl)-7-methoxy-1H-benzo[d]imidazol-6-yl)amino)-N-(methyl-d3)nicotinamide] | – | 69.3 | – | 0.3 nM | 20.8 nM | – | – | – |
| [2H]C([2H])([2H])NC(=O)c1cnc(NC(=O)NCC)cc1Nc1ncc2cnn(CC(C)(F)F)c2c1OC [Example 32, 4-((1-(2,2-Difluoropropyl)-7-methoxy-1H-pyrazolo[4,3-c]pyridin-6-yl)amino)-6-(3-ethylureido)-N-(methyl-d3)nicotinamide] | – | >175.4 | – | 1.7 nM | > 298 nM | – | – | – |
| [2H]C([2H])([2H])NC(=O)c1cnc(NC(=O)NC)cc1Nc1ncc2cnn(CC(C)(F)F)c2c1OC [Example 33, 4-((1-(2,2-Difluoropropyl)-7-methoxy-1H-pyrazolo[4,3-c]pyridin-6-yl)amino)-N-(methyl-d3)-6-(3-methylureido)nicotinamide] | – | >139.8 | – | 2.14 nM | > 298 nM | – | – | – |
| CCC(=O)c1cnc(NC(=O)C2CC2)cc1Nc1ccc2cn[nH]c2c1OC [Example 34, N-(4-((7-methoxy-1H-indazol-6-yl)amino)-5-propionylpyridin-2-yl)cyclopropanecarboxamide] | – | 8.0 | – | 3.94 nM | 31.7 nM | 480 µL/min/mg | 2.89 min | – |
